Laboratory results published in the supplement of paper PMC10307832.

Key:
Test in all cases: relative viability (nuclei count vs DMSO), 5 days (fraction); higher = more cells survive
BEN = system: BEN
How it was run: (§1)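 Lung cancer cell lines were pin-tool dosed in 1536-well plates on the day after seeding, with either a lone drug or a fixed anchor-drug dose plus five library-drug doses (not always all listed) in √10 steps. Nuclei were counted on 4× images after 5 days. Relative viability is the ratio of treated-well to vehicle-well nuclei counts, with each value a median of duplicate plates.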

ChaGo-K-1 = system: ChaGo-K-1
How it was run: as §1

HCC-78 = system: HCC-78
How it was run: as §1

LC-2-ad = system: LC-2-ad
How it was run: as §1

LCLC-97TM1 = system: LCLC-97TM1
How it was run: as §1

LK-2 = system: LK-2
How it was run: as §1

LU99A = system: LU99A
How it was run: as §1

LXF-289 = system: LXF-289
How it was run: as §1

NCI-H1355 = system: NCI-H1355
How it was run: as §1

NCI-H1651 = system: NCI-H1651
How it was run: as §1

NCI-H1666 = system: NCI-H1666
How it was run: as §1

With `CC(=O)O[C@@]12CO[C@@H]1C[C@H](O)[C@@]1(C)C(=O)[C@H](O)C3=C(C)[C@@H](OC(=O)[C@H](O)[C@@H](NC(=O)OC(C)(C)C)c4ccccc4)C[C@@](O)([C@@H](OC(=O)c4ccccc4)[C@H]21)C3(C)C` [Docetaxel] + C[C@@H](Oc1cc(-c2cnn(C3CCNCC3)c2)cnc1N)c1c(Cl)ccc(F)c1Cl [Crizotinib] (partner 1 µM) the relative viability (BEN; first compound 0.0002 µM) was 0.859, the relative viability (BEN; first compound 0.000632 µM) was 0.809 and the relative viability (BEN; first compound 0.002 µM) was 0.42. For the same compound, the relative viability (BEN; first compound 0.006325 µM) was 0.222, the relative viability (ChaGo-K-1; first compound 0.0002 µM) was 1.06 and the relative viability (ChaGo-K-1; first compound 0.000632 µM) was 0.813. The relative viability (ChaGo-K-1; first compound 0.002 µM) was 0.457, the relative viability (ChaGo-K-1; first compound 0.006325 µM) was 0.339 and the relative viability (ChaGo-K-1; first compound 0.02 µM) was 0.263. The relative viability (HCC-78; first compound 0.0002 µM) was 0.33, the relative viability (HCC-78; first compound 0.000632 µM) was 0.32 and the relative viability (HCC-78; first compound 0.002 µM) was 0.245. The relative viability (HCC-78; first compound 0.006325 µM) was 0.308, the relative viability (HCC-78; first compound 0.02 µM) was 0.223 and the relative viability (LC-2-ad; first compound 0.0002 µM) was 0.388. It also gave a relative viability (LC-2-ad; first compound 0.000632 µM) of 0.342, a relative viability (LC-2-ad; first compound 0.002 µM) of 0.318 and a relative viability (LC-2-ad; first compound 0.006325 µM) of 0.389. The relative viability (LC-2-ad; first compound 0.02 µM) was 0.222, the relative viability (LCLC-97TM1; first compound 0.000632 µM) was 0.178 and the relative viability (LCLC-97TM1; first compound 0.002 µM) was 0.115. For the same compound, the relative viability (LCLC-97TM1; first compound 0.006325 µM) was 0.139, the relative viability (LCLC-97TM1; first compound 0.02 µM) was 0.12 and the relative viability (LK-2; first compound 0.0002 µM) was 0.209. For the same compound, the relative viability (LK-2; first compound 0.000632 µM) was 0.202, the relative viability (LK-2; first compound 0.002 µM) was 0.228 and the relative viability (LK-2; first compound 0.006325 µM) was 0.213. For the same compound, the relative viability (LK-2; first compound 0.02 µM) was 0.228, the relative viability (LU99A; first compound 0.0002 µM) was 0.522 and the relative viability (LU99A; first compound 0.000632 µM) was 0.401. For the same compound, the relative viability (LU99A; first compound 0.002 µM) was 0.367, the relative viability (LU99A; first compound 0.006325 µM) was 0.278 and the relative viability (LU99A; first compound 0.02 µM) was 0.196. The relative viability (LXF-289; first compound 0.0002 µM) was 0.819, the relative viability (LXF-289; first compound 0.000632 µM) was 0.483 and the relative viability (LXF-289; first compound 0.002 µM) was 0.452. It also gave a relative viability (LXF-289; first compound 0.006325 µM) of 0.119, a relative viability (LXF-289; first compound 0.02 µM) of 0.139 and a relative viability (NCI-H1355; first compound 0.0002 µM) of 1.01. For the same compound, the relative viability (NCI-H1355; first compound 0.000632 µM) was 0.893, the relative viability (NCI-H1355; first compound 0.002 µM) was 0.456 and the relative viability (NCI-H1355; first compound 0.006325 µM) was 0.241. It also gave a relative viability (NCI-H1355; first compound 0.02 µM) of 0.198, a relative viability (NCI-H1651; first compound 0.0002 µM) of 0.835 and a relative viability (NCI-H1651; first compound 0.000632 µM) of 0.876. For the same compound, the relative viability (NCI-H1651; first compound 0.002 µM) was 0.612, the relative viability (NCI-H1651; first compound 0.006325 µM) was 0.168 and the relative viability (NCI-H1651; first compound 0.02 µM) was 0.167. It also gave a relative viability (NCI-H1666; first compound 0.0002 µM) of 0.67 and a relative viability (NCI-H1666; first compound 0.000632 µM) of 0.508.
